Experimental data from patent US8633315B2, “Substituted hydroxyethyl amine compounds as beta-secretase modulators and methods of use” (Amgen Inc., priority 2007, dated 2014).

Tests used:
[1] = test system: Cells stably expressing Amyloid Precursor Protein (APP); assay: In vitro BACE cell-based assay (HEK cell assay): Aβ40 in conditioned medium by sandwich ELISA; settings: Homo sapiens, Aβ40 in conditioned medium after 24 h incubation
Method: In Vitro BACE Cell-Based Assay:
The cell-based assay measures inhibition or reduction of Aβ40 in conditioned medium of test compound treated cells expressing amyloid precursor protein.
Cells stably expressing Amyloid Precursor Protein (APP) were plated at a density of 40K cells/well in 96 well plates (Costar). The cells were cultivated for 24 hours at 37° C. and 5% CO2 in DMEM supplemented with 10% FBS. The test compounds were then added to cells in 10-point dose response concentrations with the starting concentration being either 100 μM or 10 μM. The compounds were diluted from stock solutions in DMSO and the final DMSO concentration of the test compounds on cells was 0.1%. After 24 h of incubation with the test compounds the supernatant conditioned media was collected and the Aβ 40 levels were determined using a sandwich ELISA. The IC50 of the compound was calculated from the percent of control or percent inhibition of Aβ 40 as a function of the concentration of the test compound.
The sandwich ELISA to detect Aβ 40 was performed in 96 well microtiter plates, which were pre-treated with goat anti-rabbit IgG (Pierce). The capture and detecting antibody pair that were used to detect Aβ 40 from cell supernatants were affinity purified pAb40 (Biosource) and biotinylated 6E10 (Signet Labs Inc.), respectively. The optimal concentration for the pAb40 antibody was 3 μg/ml in Superblock/TBS (Pierce) that was supplemented with 0.05% Tween 20 (Sigma). Optimal concentration for the detection antibody 6E10-biotinylated was 0.5 μg/ml in Superblock/TBS (Pierce) that had been supplemented with 2% normal goat serum and 2% normal mouse serum.
Cellular supernatants were incubated with the capture antibody for 3 h at 4° C., followed by 3 wash steps in TBS-tween (0.05%). The detecting antibody incubation was for 2 h at 4° C., again followed by the wash steps as described previously. The final readout of the ELISA is Time-Resolved Fluorescence (counts per minute) using Delfia reagents Streptavidin-Europium and Enhancement solutions (Perkin Elmer) and the Victor 2 multilabel counter (Perkin Elmer).
Of the compounds tested, in-the cell-based assay, data for each of Examples 33-156 is provided in Table 1 and Examples 208-246 are provided in Table 4.

[2] = molecular target: BACE1 (Homo sapiens, UniProt P56817); assay: In vitro enzymatic BACE FRET (fluorescence resonance energy transfer) assay; format: biochemical
Method: In Vitro Enzymatic BACE FRET (Fluorescence Resonance Energy Transfer) Assay (Enzyme Assay Data in Table 1)
The assay buffer used in this screen is 0.05 M acetate, pH 4.2, 10% DMSO final, 100 uM genapol (which is a nonionic detergent, below its Critical Micelle Concentration). […] The assay is effectively started by the addition of FRET substrate (50 nM) and the combination is incubated for one hour. The FRET assay is terminated with by addition of Tris buffer, which raises the pH to neutrality, and the fluorescence is determined. The FRET substrate is a peptide with commercially available fluorophore and quencher, on opposite sides of the BACE cleavage site. Proteolytic cleavage of the FRET substrate releases quenching of fluorescence (excitation […] and emission […]).

BACE1, sequence (P56817 46-501, species assumed): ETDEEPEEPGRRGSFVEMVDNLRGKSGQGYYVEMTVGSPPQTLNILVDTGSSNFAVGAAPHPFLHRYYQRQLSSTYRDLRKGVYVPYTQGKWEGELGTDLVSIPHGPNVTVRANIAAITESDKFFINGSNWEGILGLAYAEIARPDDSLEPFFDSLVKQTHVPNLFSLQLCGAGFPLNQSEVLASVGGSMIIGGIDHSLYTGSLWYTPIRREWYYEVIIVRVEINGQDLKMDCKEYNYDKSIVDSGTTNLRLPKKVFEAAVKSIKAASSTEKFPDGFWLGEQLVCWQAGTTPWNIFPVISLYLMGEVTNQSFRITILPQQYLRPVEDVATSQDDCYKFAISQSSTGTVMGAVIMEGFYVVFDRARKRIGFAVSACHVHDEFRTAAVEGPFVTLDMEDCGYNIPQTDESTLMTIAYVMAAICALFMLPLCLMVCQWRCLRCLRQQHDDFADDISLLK

Structure (SMILES)	IC50 ([1]; HEK293, 24 h) [nM]	IC50 [2] [nM]	IC50 ([1]; HEK293) [nM]
C=CC[C@H](NC(=O)c1cc(F)ccc1F)[C@H](O)CN[C@H]1CC2(CCC2)Oc2ncc(CC(C)(C)C)cc21 [Example 71, N-((1S)-1-((1R)-2-(((4′S)-6′-(2,2-dimethylpropyl)-3′,4′-dihydrospiro[cyclobutane-1,2′-pyrano[2,3-b]pyridin]-4′-yl)amino)-1-hydroxyethyl)-3-buten-1-yl)-2,5-difluorobenzamide]	998	212	–
C=C(C)C[C@H](NC(=O)CF)[C@H](O)CN[C@H]1CC2(CCC2)Oc2ncc(CC(C)(C)C)cc21 [Example 100, N-((1S)-1-((1R)-2-(((4′S)-6′-(2,2-dimethylpropyl)-3′,4′-dihydrospiro[cyclobutane-1,2′-pyrano[2,3-b]pyridin]-4′-yl)amino)-1-hydroxyethyl)-3-methyl-3-buten-1-yl)-2-fluoroacetamide]	–	3650	3330
C=CC[C@H](NC(=O)c1cnccn1)[C@H](O)CN[C@H]1CC2(CCC2)Oc2ncc(CC(C)(C)C)cc21 [Example 98, N-((1S)-1-((1R)-2-(((4′S)-6′-(2,2-dimethylpropyl)-3′,4′-dihydrospiro[cyclobutane-1,2′-pyrano[2,3-b]pyridin]-4′-yl)amino)-1-hydroxyethyl)-3-buten-1-yl)-2-pyrazinecarboxamide]	1680	741	–
C=CC[C@H](NC(=O)c1cc(F)c(F)c(F)c1)[C@H](O)CN[C@H]1CC2(CCC2)Oc2ncc(CC(C)(C)C)cc21 [Example 79, N-((1S)-1-((1R)-2-(((4′S)-6′-(2,2-dimethylpropyl)-3′,4′-dihydrospiro[cyclobutane-1,2′-pyrano[2,3-b]pyridin]-4′-yl)amino)-1-hydroxyethyl)-3-buten-1-yl)-3,4,5-trifluorobenzamide]	1970	465	–
C=CC[C@H](NC(=O)COC)[C@H](O)CN[C@H]1CC2(CCC2)Oc2ncc(CC(C)(C)C#N)cc21 [Example 55, N-((1S)-1-((1R)-2-(((4′S)-6′-(2-cyano-2-methylpropyl)-3′,4′-dihydrospiro[cyclobutane-1,2′-pyrano[2,3-b]pyridin]-4′-yl)amino)-1-hydroxyethyl)-3-buten-1-yl)-2-(methyloxy)acetamide]	7580	3400	–
C=CC[C@H](NC(=O)c1cncnc1)[C@H](O)CN[C@H]1CC2(CCC2)Oc2ncc(CC(C)(C)C)cc21 [Example 68, N-((1S)-1-((1R)-2-(((4′S)-6′-(2,2-dimethylpropyl)-3′,4′-dihydrospiro[cyclobutane-1,2′-pyrano[2,3-b]pyridin]-4′-yl)amino)-1-hydroxyethyl)-3-buten-1-yl)-5-pyrimidinecarboxamide]	709	271	–
C=CC[C@H](NC(=O)c1ccc2c(c1)OCO2)[C@H](O)CN[C@H]1CC2(CCC2)Oc2ncc(CC(C)(C)C)cc21 [Example 102, N-((1S)-1-((1R)-2-(((4′S)-6′-(2,2-dimethylpropyl)-3′,4′-dihydrospiro[cyclobutane-1,2′-pyrano[2,3-b]pyridin]-4′-yl)amino)-1-hydroxyethyl)-3-buten-1-yl)-1,3-benzodioxole-5-carboxamide]	707	75	–
C=CC[C@H](NC(=O)c1cscn1)[C@H](O)CN[C@H]1CC2(CCC2)Oc2ncc(CC(C)(C)C)cc21 [Example 134, N-((1S)-1-((1R)-2-(((4′S)-6′-(2,2-dimethylpropyl)-3′,4′-dihydrospiro[cyclobutane-1,2′-pyrano[2,3-b]pyridin]-4′-yl)amino)-1-hydroxyethyl)-3-buten-1-yl)-1,3-thiazole-4-carboxamide]	664	130	–

The remaining compounds from weak to strong by IC50 ([1]; HEK293, 24 h), led by results:

IC50 ([1]; HEK293, 24 h) [nM]	IC50 [2] [nM]	Structure (SMILES)	IC50 ([1]; HEK293) [nM]
637	145	C=CC[C@H](NC(=O)[C@H](C)OC)[C@H](O)CN[C@H]1CC2(CCC2)Oc2ncc(CC(C)(C)C)cc21 [Example 95, (2S)-N-((1S)-1-((1R)-2-(((4′S)-6′-(2,2-dimethylpropyl)-3′,4′-dihydrospiro[cyclobutane-1,2′-pyrano[2,3-b]pyridin]-4′-yl)amino)-1-hydroxyethyl)-3-buten-1-yl)-2-(methyloxy)propanamide]	–
526	264	C=CC[C@H](NC(=O)c1ccc(F)cc1F)[C@H](O)CN[C@H]1CC2(CCC2)Oc2ncc(CC(C)(C)C)cc21 [Example 70, N-((1S)-1-((1R)-2-(((4′S)-6′-(2,2-dimethylpropyl)-3′,4′-dihydrospiro[cyclobutane-1,2′-pyrano[2,3-b]pyridin]-4′-yl)amino)-1-hydroxyethyl)-3-buten-1-yl)-2,4-difluorobenzamide]	–
342	37	C=CC[C@H](NC(=O)C(C)(F)F)[C@H](O)CN[C@H]1CC2(CCC2)Oc2ncc(CC(C)(C)C)cc21 [Example 136, N-((1S)-1-((1R)-2-(((4′S)-6′-(2,2-dimethylpropyl)-3′,4′-dihydrospiro[cyclobutane-1,2′-pyrano[2,3-b]pyridin]-4′-yl)amino)-1-hydroxyethyl)-3-buten-1-yl)-2,2-difluoropropanamide]	–
247	565	C=CC[C@H](NC(=O)[C@@H](CC)OC)[C@H](O)CN[C@H]1CC2(CCC2)Oc2ncc(CC(C)(C)C)cc21 [Example 146, (2R)-N-((1S)-1-((1R)-2-(((4′S)-6′-(2,2-dimethylpropyl)-3′,4′-dihydrospiro[cyclobutane-1,2′-pyrano[2,3-b]pyridin]-4′-yl)amino)-1-hydroxyethyl)-3-buten-1-yl)-2-(methyloxy)butanamide]	–
201	61	C=CC[C@H](NC(=O)c1cncs1)[C@H](O)CN[C@H]1CC2(CCC2)Oc2ncc(CC(C)(C)C)cc21 [Example 97, N-((1S)-1-((1R)-2-(((4′S)-6′-(2,2-dimethylpropyl)-3′,4′-dihydrospiro[cyclobutane-1,2′-pyrano[2,3-b]pyridin]-4′-yl)amino)-1-hydroxyethyl)-3-buten-1-yl)-1,3-thiazole-5-carboxamide]	–
167	83	CCC[C@H](NC(C)=O)[C@H](O)CN[C@H]1CC2(CCC2)Oc2ncc(CC(C)(C)C)cc21 [Example 43, N-((1S)-1-((1R)-2-(((4′S)-6′-(2,2-dimethylpropyl)-3′,4′-dihydrospiro[cyclobutane-1,2′-pyrano[2,3-b]pyridin]-4′-yl)amino)-1-hydroxyethyl)butyl)acetamide]	–
65	372	C=CC[C@H](NC(=O)c1cncn1C)[C@H](O)CN[C@H]1CC2(CCC2)Oc2ncc(CC(C)(C)C)cc21 [Example 131, N-((1S)-1-((1R)-2-(((4′S)-6′-(2,2-dimethylpropyl)-3′,4′-dihydrospiro[cyclobutane-1,2′-pyrano[2,3-b]pyridin]-4′-yl)amino)-1-hydroxyethyl)-3-buten-1-yl)-1-methyl-1H-imidazole-5-carboxamide]	–
60	49	C=CCC(NC(=O)C1CN(C(C)=O)CCO1)C(O)CNC1CC2(CCC2)Oc2ncc(CC(C)(C)C)cc21 [Example 155, (2R)-4-acetyl-N-((1S)-1-((1R)-2-(((4′S)-6′-(2,2-dimethylpropyl)-3′,4′-dihydrospiro[cyclobutane-1,2′-pyrano[2,3-b]pyridin]-4′-yl)amino)-1-hydroxyethyl)-3-buten-1-yl)-2-morpholinecarboxamide; (2S)-4-acetyl-N-((1S)-1-((1R)-2-(((4′S)-6′-(2,2-dimethylpropyl)-3′,4′-dihydrospiro[cyclobutane-1,2′-pyrano[2,3-b]pyridin]-4′-yl)amino)-1-hydroxyethyl)-3-buten-1-yl)-2-morpholinecarboxamide]	–
28	2	C=CCC(NC(=O)C1CCC(=O)O1)C(O)CNC1CC2(CC(O)C2)Oc2ncc(CC(C)(C)C)cc21 [Example 112, (2S)-N-((1S)-1-((1R)-2-(((1s,3S,4′S)-6′-(2,2-dimethylpropyl)-3-hydroxy-3′,4′-dihydrospiro[cyclobutane-1,2′-pyrano[2,3-b]pyridin]-4′-yl)amino)-1-hydroxyethyl)-3-buten-1-yl)-5-oxotetrahydro-2-furancarboxamide]	–
